# Measured values from patent publication US6498180B1, “Excitatory amino acid receptor modulators” (Eli Lilly and Company, priority 1999, dated 2002).
# Assays:
# mGluR3 [1] = target: T1, mGluR3 (Homo sapiens, UniProt Q14832); experiment: [3H] LY341495 binding at mGluR3; set-up: expressed in transfected cells; settings: Example 1: average result from several tests, read-out: Ki, reversal of [3H] LY341495 binding at mGluR3
# From the text: (D. D. Schoepp, et al., Neuropharmacol., 1996, 35, 1661-1672 and 1997, 36, 1-11).
# mGluR3 [2] = target: T1, mGluR3; experiment: decrease of forskolin-stimulated cAMP in cells expressing mGluR3
# From the text: The ability of compounds to function as agonists of glutamate at metabotropic glutamate receptors may be determined by measuring their ability to decrease forskolin-stimulated cAMP in cells expressing mGluR receptors.
# animal model of anxiety = settings: in vivo
# T1 sequence (Q14832 23-879): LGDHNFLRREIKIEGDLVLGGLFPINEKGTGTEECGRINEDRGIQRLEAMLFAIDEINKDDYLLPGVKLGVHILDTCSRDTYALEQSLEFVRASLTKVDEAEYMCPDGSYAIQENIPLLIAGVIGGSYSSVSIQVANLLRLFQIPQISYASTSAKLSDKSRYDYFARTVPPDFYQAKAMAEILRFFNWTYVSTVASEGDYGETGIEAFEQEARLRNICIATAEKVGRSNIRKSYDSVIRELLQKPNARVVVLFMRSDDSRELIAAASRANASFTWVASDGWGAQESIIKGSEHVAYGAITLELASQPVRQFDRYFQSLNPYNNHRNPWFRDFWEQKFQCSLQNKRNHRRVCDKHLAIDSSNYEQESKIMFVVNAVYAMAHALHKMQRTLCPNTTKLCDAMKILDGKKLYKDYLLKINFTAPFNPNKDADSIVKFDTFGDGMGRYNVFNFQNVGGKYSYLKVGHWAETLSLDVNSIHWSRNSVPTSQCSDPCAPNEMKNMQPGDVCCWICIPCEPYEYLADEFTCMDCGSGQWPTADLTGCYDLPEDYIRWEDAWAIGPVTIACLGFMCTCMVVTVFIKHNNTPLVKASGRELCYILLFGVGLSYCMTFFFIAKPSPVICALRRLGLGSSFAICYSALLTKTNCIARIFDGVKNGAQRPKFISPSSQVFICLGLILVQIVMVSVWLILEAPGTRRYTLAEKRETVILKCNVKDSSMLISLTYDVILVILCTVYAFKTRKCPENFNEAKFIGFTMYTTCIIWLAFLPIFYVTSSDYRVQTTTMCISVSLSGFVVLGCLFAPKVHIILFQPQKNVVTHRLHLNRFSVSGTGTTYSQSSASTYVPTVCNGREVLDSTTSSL
SMILES,melting point [°C],Ki (mGluR3 [1]) [nM],EC50 (mGluR3 [2]) [nM],potency in an animal model of anxiety (animal model of anxiety)
"N[C@H](C(=O)O)[C@H]1[C@@H](CSc2ccccc2)[C@@H]1C(=O)O (racemic) [Example 8, (2SR,1′RS,2′RS,3′RS)-2-[3′-(phenylthiomethyl)-2′-carboxycyclopropyl]glycine]",201,,,
"N[C@H](C(=O)O)[C@H]1[C@@H](CO)[C@@H]1C(=O)O (single isomer, unassigned) [Example 22]",,5.1,,
"N[C@H](C(=O)O)[C@H]1[C@@H](CS)[C@@H]1C(=O)O (racemic) [Example 3, (2SR,1′RS,2′RS,3′RS)-2-[3′-mercaptomethyl-2′-carboxycyclopropyl]glycine]",200 to 202,,,
"N[C@H](C(=O)O)[C@H]1[C@@H](CO)[C@@H]1C(=O)O (racemic) [Example 1, (2SR,1′SR,2′RS,3′RS)-2-(3′-hydroxymethyl-2′-carboxycyclopropyl)glycine]",,7.9,11.5,highly potent
